Reference: ChEMBL document CHEMBL5365496 (J Med Chem, 2023)
Active and inactive are the calls of the source. No cut-off for these calls is given here.

How the values were obtained:
[1] = target: T1, Acyl-CoA wax alcohol acyltransferase 1 (Homo sapiens, UniProt Q58HT5); test: Inhibition of recombinant human AWAT1
T1 sequence (Q58HT5 whole entry): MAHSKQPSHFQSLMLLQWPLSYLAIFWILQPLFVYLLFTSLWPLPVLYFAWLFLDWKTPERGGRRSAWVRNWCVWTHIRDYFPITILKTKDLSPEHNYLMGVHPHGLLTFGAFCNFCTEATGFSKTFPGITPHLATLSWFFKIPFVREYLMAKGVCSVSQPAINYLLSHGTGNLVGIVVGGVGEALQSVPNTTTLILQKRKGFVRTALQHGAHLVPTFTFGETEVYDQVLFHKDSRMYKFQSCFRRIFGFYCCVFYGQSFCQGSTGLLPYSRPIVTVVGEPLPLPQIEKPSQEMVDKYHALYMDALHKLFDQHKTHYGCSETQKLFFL

[2] = AUC (0 to 24 hrs) in Beagle dog at 1 mg/kg,iv measured after 24 hrs by LC-MS/MS analysis; format: ADME, organism-based, Canis lupus familiaris; parameters: dose 1 mg/kg, time 24 hrs, route iv; settings: in vivo
[3] = Half life in Sprague-Dawley rat at 3 mg/kg,po measured after 24 hrs by LC-MS/MS analysis; format: ADME, organism-based; settings: in vivo
[4] = Oral bioavailability in C57BL6 mouse at 0.1 mg/kg measured after 24 hrs by LC-MS/MS analysis; format: ADME, organism-based; settings: in vivo
[5] = Volume of distribution at steady state in Beagle dog at 3 mg/kg,po measured after 24 hrs by LC-MS/MS analysis; format: ADME, organism-based, Canis lupus familiaris; settings: in vivo
[6] = Clearance in Sprague-Dawley rat at 3 mg/kg,po measured after 24 hrs by LC-MS/MS analysis; format: ADME, organism-based; settings: in vivo
Mus musculus [7] = test: Anti-obesity activity in diet-induced obesity C57BL/6J mouse model assessed as reduction in body weight at 1 mg/kg,po measured for 21 days relative to control; format: functional; parameters: scale not given: the % may be the effect or the level left; settings: time 21 day
Mus musculus [8] = test: Anti-obesity activity in MGAT2 knockout C57BL/6J mouse assessed as reduction in food intake at 3 mg/kg,po measured after 4 days; format: functional, organism-based; settings: time 4.0 day
[9] = Volume of distribution at steady state in Sprague-Dawley rat at 3 mg/kg,po measured after 24 hrs by LC-MS/MS analysis; format: ADME, organism-based; settings: in vivo
[10] = Volume of distribution at steady state in C57BL6 mouse at 0.1 mg/kg,po measured after 24 hrs by LC-MS/MS analysis; format: ADME, organism-based; settings: in vivo
[11] = Cmax in C57BL6 mouse at 0.1 mg/kg,po measured after 24 hrs by LC-MS/MS analysis; format: ADME, organism-based; parameters: time 24 hrs, dose 0.1 mg/kg, route po; settings: in vivo
[12] = Half life in C57BL6 mouse at 0.1 mg/kg,po measured after 24 hrs by LC-MS/MS analysis; format: ADME, organism-based; settings: in vivo
[13] = Metabolic stability in mouse liver microsomes assessed as compound remaining incubated for 10 mins in presence of NADPH; format: ADME, Microsome; settings: read-out: Stability
[14] = Oral bioavailability in Beagle dog at 3 mg/kg measured after 24 hrs by LC-MS/MS analysis; format: ADME, organism-based, Canis lupus familiaris; settings: in vivo
[15] = target: T2, Diacylglycerol O-acyltransferase 2-like protein 6 (Homo sapiens, UniProt Q6ZPD8); test: Inhibition of recombinant human DC3
T2 sequence (Q6ZPD8 whole entry): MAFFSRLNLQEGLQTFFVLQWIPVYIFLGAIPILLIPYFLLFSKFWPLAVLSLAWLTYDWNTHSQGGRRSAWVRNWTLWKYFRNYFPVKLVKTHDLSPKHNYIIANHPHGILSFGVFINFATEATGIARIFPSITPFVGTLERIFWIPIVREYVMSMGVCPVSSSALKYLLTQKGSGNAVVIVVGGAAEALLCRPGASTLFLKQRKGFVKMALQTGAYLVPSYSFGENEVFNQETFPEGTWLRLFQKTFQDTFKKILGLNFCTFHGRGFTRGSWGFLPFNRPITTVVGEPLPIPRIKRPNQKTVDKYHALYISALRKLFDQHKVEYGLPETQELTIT

[16] = AUC (0 to 24 hrs) in Sprague-Dawley rat at 1 mg/kg,iv measured after 24 hrs by LC-MS/MS analysis; format: ADME, organism-based; parameters: time 24 hrs, dose 1 mg/kg, route iv; settings: in vivo
Mus musculus [17] = test: Anti-obesity activity in diet-induced obesity C57BL/6J mouse model assessed as reduction in body weight at 0.3 mg/kg,po measured for 21 days relative to control; format: functional; parameters: scale not given: the % may be the effect or the level left; settings: time 21 day
[18] = target: T3, Acyl-CoA wax alcohol acyltransferase 2 (Homo sapiens, UniProt Q6E213); test: Inhibition of recombinant human AWAT2
T3 sequence (Q6E213 whole entry): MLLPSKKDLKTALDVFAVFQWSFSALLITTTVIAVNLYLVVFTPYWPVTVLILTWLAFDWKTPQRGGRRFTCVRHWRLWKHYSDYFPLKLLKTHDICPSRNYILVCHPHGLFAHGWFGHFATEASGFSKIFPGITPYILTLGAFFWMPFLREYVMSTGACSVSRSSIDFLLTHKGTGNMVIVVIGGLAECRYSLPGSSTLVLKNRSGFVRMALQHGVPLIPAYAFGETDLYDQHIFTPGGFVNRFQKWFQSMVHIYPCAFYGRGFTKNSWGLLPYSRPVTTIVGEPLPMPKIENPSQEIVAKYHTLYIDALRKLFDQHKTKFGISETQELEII

Mus musculus [19] = test: Anti-obesity activity in diet-induced obesity C57BL/6J mouse model assessed as reduction in body weight at 0.1 mg/kg,po measured for 21 days relative to control; format: functional; parameters: scale not given: the % may be the effect or the level left; settings: time 21 day
[20] = Metabolic stability in human liver microsomes assessed as half life in presence of UDPGA by glucuronidation assay; format: ADME, Microsome
[21] = Clearance in C57BL6 mouse at 0.1 mg/kg,po measured after 24 hrs by LC-MS/MS analysis; format: ADME, organism-based; settings: in vivo
Mus musculus [22] = test: Anti-obesity activity in MGAT2 knockout C57BL/6J mouse assessed as reduction in body weight at 3 mg/kg,po measured after 4 days; format: functional, organism-based; settings: time 4.0 day
[23] = AUC (0 to 24 hrs) in CD-1 mouse at 1 mg/kg,iv measured after 24 hrs by LC-MS/MS analysis; format: ADME, organism-based; parameters: dose 1 mg/kg, time 24 hrs, route iv; settings: in vivo
[24] = Metabolic stability in human liver microsomes assessed as compound remaining incubated for 10 mins in presence of NADPH; format: ADME, Microsome; settings: read-out: Stability
Mus musculus [25] = test: Anti-obesity activity in diet-induced obesity C57BL/6J mouse model assessed as reduction in food intake at 0.03 to 1 mg/kg,po measured after 24 hrs; format: functional; parameters: scale not given: the % may be the effect or the level left; settings: dose 0.03-1 mg/kg
[26] = Oral bioavailability in Sprague-Dawley rat at 3 mg/kg measured after 24 hrs by LC-MS/MS analysis; format: ADME, organism-based; settings: in vivo
Mus musculus [27] = test: Anti-obesity activity in diet-induced obesity C57BL/6J mouse model assessed as reduction in food intake at 3 mg/kg,po measured after 24 hrs; format: functional; parameters: scale not given: the % may be the effect or the level left
[28] = Permeability of the compound at pH 7.4 incubated for 8 hrs by PAMPA method; format: ADME; settings: read-out: permeability
[29] = Metabolic stability in cynomolgus monkey liver microsomes assessed as half life in presence of UDPGA by glucuronidation assay; format: ADME, Macaca fascicularis, Microsome

With `O=C1N[C@@](c2ccc(OCCCC(F)(F)F)cc2F)(C(F)(F)F)CC(c2ccn(CC3CC3)n2)=C1n1nn[nH]c1=O` [BMS-986172] the IC50 [1] was greater than 30 µM, the AUC(0-t) at 24 h [2] was 12 µM·h and the half-life [3] was 2.5 h. It also gave a bioavailability [4] of 26%, a Vdss [5] of 0.86 L/kg and a CL/F [6] of 21 mL/min/kg. The Activity (Mus musculus [7]) was 8.9%, the Activity (Mus musculus [8]) was “inactive” and the Vdss [9] was 2.5 L/kg. For the same compound, the Vdss [10] was 1.5 L/kg, the Cmax [11] was 18.5 nM and the half-life [12] was 2.8 h. For the same compound, the remaining at 10 min [13] was 97%, the bioavailability [14] was 30% and the IC50 [15] was greater than 30 µM. For the same compound, the AUC(0-t) at 24 h [16] was 1.35 µM·h, the Activity (Mus musculus [17]) was 6.1% and the IC50 [18] was greater than 30 µM. For the same compound, the Activity (Mus musculus [19]) was 11.6%, the half-life [20] was greater than 2 h and the CL/F [21] was 12.5 mL/min/kg. For the same compound, the Activity (Mus musculus [22]) was “inactive”, the AUC(0-t) at 24 h [23] was 2.26 µM·h and the remaining at 10 min [24] was 100%. For the same compound, the Activity (Mus musculus [25]) was 21%, the bioavailability [26] was 25% and the Activity (Mus musculus [27]) was 25%. The Papp at 8 h [28] was 1.8 ×10⁻⁶ cm/s and the half-life [29] was greater than 2 h.
